In EP0908457B1, “3-(1,2-benzisothiazol- and isoxazol-5-Y1)-2,4(1H,3H)-pyrimidinedione or thione and 3-(1,2-benzisothiazol- and isoxazol-5-y1)-4(3H)-pyrimidinone or thione herbicidal agents” (BASF AKTIENGESELLSCHAFT, priority 1997, dated 1999):

Experiments:
[1] = tested on: Cyperus serotinus, Rottb.; experiment: Preemergence weed control under flooded paddy conditions, CYPSE (Flatsedge); type: in vivo; for herbicidal effect rating, CYPSE: meaning of each grade not given here
Sagittaria pygmaea, L. = experiment: Preemergence weed control under flooded paddy conditions, SAGPY (Arrowhead (Pygmaea)); type: in vivo; conditions: flooded paddy; for herbicidal effect rating, SAGPY: meaning of each grade not given here
[2] = tested on: Echinochloa oryzoides (Ard.) Fritsch.; experiment: Preemergence weed control under flooded paddy conditions, ECHORC (Watergrass (Calif.)); type: in vivo; conditions: flooded paddy; for herbicidal effect rating, ECHORC: meaning of each grade not given here
Cyperus iria = experiment: Preemergence weed control under flooded paddy conditions, CYPIR (Rice Flatsedge); type: in vivo; conditions: flooded paddy; for herbicidal effect rating, CYPIR: meaning of each grade not given here
[3] = tested on: Monochoria vaginalis, Presl.; experiment: Preemergence weed control under flooded paddy conditions, MOOVA (Monochoria); type: in vivo; conditions: flooded paddy; for herbicidal effect rating, MOOVA: meaning of each grade not given here
[4] = tested on: Oryza sativa, (L.) Tebonnet; experiment: Rice tolerance to post-transplant applications under flooded paddy conditions (Example 187), ORYSAT (Rice, Tebonnet); conditions: for ORYSAT herbicidal effect rating / herbicidal effect rating, ORYSAT (rice tolerance): rated three to four weeks after treatment; for herbicidal effect rating ORYSAT: rated 3-4 weeks after treatment; for herbicidal effect rating ORYSAT: meaning of each grade not given here
[5] = Rate 0.0313 kg/ha, preemergence, rated three to four weeks after treatment
[6] = Rate 0.0625 kg/ha, preemergence, rated three to four weeks after treatment
[7] = Rate 0.1250 kg/ha, preemergence, rated three to four weeks after treatment
[8] = Rate 0.2500 kg/ha, preemergence, rated three to four weeks after treatment
[9] = 0.0315 kg/ha, preemergence weeds, rated three to four weeks after treatment
[10] = 0.0630 kg/ha, preemergence weeds, rated three to four weeks after treatment
[11] = Rate 0.0320 kg/ha, preemergence, rated 3-4 weeks after treatment
[12] = Rate 0.0620 kg/ha, preemergence, rated 3-4 weeks after treatment
[13] = Rate 0.1250 kg/ha, preemergence, rated 3-4 weeks after treatment
[14] = Rate 0.2500 kg/ha, preemergence, rated 3-4 weeks after treatment

C=CCCOCc1nsc2ccc(-n3c(=O)cc(C(F)(F)F)n(C)c3=O)cc12 [Example 223, 3-{3-[(3-Butenyloxy)methyl]-1,2-benzisothiazol-5-yl}-1-methyl-6-(trifluoromethyl)-2,4(1H,3H)-pyrimidinedione]
CYPSE herbicidal effect rating [1, 5]: 0.0
CYPSE herbicidal effect rating [1, 6]: 4.0
CYPSE herbicidal effect rating [1, 7]: 6.0
CYPSE herbicidal effect rating [1, 8]: 8.0
SAGPY herbicidal effect rating (Sagittaria pygmaea, L.; [5]): 0.0
SAGPY herbicidal effect rating (Sagittaria pygmaea, L.; [6]): 2.0
SAGPY herbicidal effect rating (Sagittaria pygmaea, L.; [7]): 6.0
SAGPY herbicidal effect rating (Sagittaria pygmaea, L.; [8]): 9.0
ECHORC herbicidal effect rating [2, 5]: 6.0
ECHORC herbicidal effect rating [2, 6]: 6.0
ECHORC herbicidal effect rating [2, 7]: 8.0
ECHORC herbicidal effect rating [2, 8]: 9.0
CYPIR herbicidal effect rating (Cyperus iria; [5]): 4.0
CYPIR herbicidal effect rating (Cyperus iria; [6]): 7.0
CYPIR herbicidal effect rating (Cyperus iria; [7]): 7.0
CYPIR herbicidal effect rating (Cyperus iria; [8]): 9.0
MOOVA herbicidal effect rating [3, 5]: 9.0
MOOVA herbicidal effect rating [3, 6]: 9.0
MOOVA herbicidal effect rating [3, 7]: 9.0
MOOVA herbicidal effect rating [3, 8]: 9.0
ORYSAT herbicidal effect rating ([4]; Rate 0.0313 kg/ha): 7.0
ORYSAT herbicidal effect rating ([4]; Rate 0.0625 kg/ha): 8.0
ORYSAT herbicidal effect rating ([4]; Rate 0.1250 kg/ha): 8.0
ORYSAT herbicidal effect rating ([4]; Rate 0.2500 kg/ha): 9.0

Cc1ccc(OCC(=O)OC2C=CCCC2)c(-c2nsc3ccc(-n4c(=O)cc(C(F)(F)F)n(C)c4=O)cc23)c1 (stereo not drawn) [Example 185, 2-Cyclohexen-1-yl {{2-{5-[3,6-dihydro-3-methyl-2,6-dioxo-4-(trifluoromethyl)-1(2H)-pyrimidinyl]-1,2-benzisothiazol-3-yl}-p-tolyl}oxy}acetate]
herbicidal effect rating, CYPSE [1, 9]: 0.0
herbicidal effect rating, CYPSE [1, 10]: 0.0
herbicidal effect rating, SAGPY (Sagittaria pygmaea, L.; [9]): 0.0
herbicidal effect rating, SAGPY (Sagittaria pygmaea, L.; [10]): 0.0
herbicidal effect rating, ECHORC [2, 9]: 0.0
herbicidal effect rating, ECHORC [2, 10]: 0.0
herbicidal effect rating, CYPIR (Cyperus iria; [9]): 0.0
herbicidal effect rating, CYPIR (Cyperus iria; [10]): 0.0
herbicidal effect rating, MOOVA [3, 9]: 9.0
herbicidal effect rating, MOOVA [3, 10]: 9.0
herbicidal effect rating, ORYSAT (rice tolerance) ([4]; 0.0315 kg/ha): 0.0
herbicidal effect rating, ORYSAT (rice tolerance) ([4]; 0.0630 kg/ha): 0.0

C=CCOC(=O)C(C)(C)Oc1ccc(C)cc1-c1nsc2ccc(-n3c(=O)cc(C(F)(F)F)n(C)c3=O)cc12 [Example 530, Propionic acid, 2-{{2-{5-[3,6-dihydro-3-methyl-2,6-dioxo-4-(trifluoromethyl)-1(2H)-pyrimidinyl]-1,2-benzisothiazol-3-yl}-p-tolyl}oxy}-2-methyl-, allyl ester]
herbicidal effect rating, CYPSE [1, 11]: 0.0
herbicidal effect rating, CYPSE [1, 12]: 0.0
herbicidal effect rating, CYPSE [1, 13]: 0.0
herbicidal effect rating, CYPSE [1, 14]: 0.0
herbicidal effect rating, SAGPY (Sagittaria pygmaea, L.; [11]): 0.0
herbicidal effect rating, SAGPY (Sagittaria pygmaea, L.; [12]): 0.0
herbicidal effect rating, SAGPY (Sagittaria pygmaea, L.; [13]): 3.0
herbicidal effect rating, SAGPY (Sagittaria pygmaea, L.; [14]): 9.0
herbicidal effect rating, ECHORC [2, 11]: 9.0
herbicidal effect rating, ECHORC [2, 12]: 9.0
herbicidal effect rating, ECHORC [2, 13]: 9.0
herbicidal effect rating, ECHORC [2, 14]: 9.0
herbicidal effect rating, CYPIR (Cyperus iria; [11]): 0.0
herbicidal effect rating, CYPIR (Cyperus iria; [12]): 9.0
herbicidal effect rating, CYPIR (Cyperus iria; [13]): 9.0
herbicidal effect rating, CYPIR (Cyperus iria; [14]): 9.0
herbicidal effect rating, MOOVA [3, 11]: 9.0
herbicidal effect rating, MOOVA [3, 12]: 9.0
herbicidal effect rating, MOOVA [3, 13]: 9.0
herbicidal effect rating, MOOVA [3, 14]: 9.0
herbicidal effect rating ORYSAT ([4]; Rate 0.0320 kg/ha): 0.0
herbicidal effect rating ORYSAT ([4]; Rate 0.0620 kg/ha): 0.0
herbicidal effect rating ORYSAT ([4]; Rate 0.1250 kg/ha): 3.0
herbicidal effect rating ORYSAT ([4]; Rate 0.2500 kg/ha): 9.0
